These are literature values, as cited in US20100035998A1, “COMBINATION S-NITROSOTHIOL PHARMACEUTICAL PRODUCTS FOR RESTORING NORMAL BREATHING RHYTHMS” (Galleon Pharmaceutical, Inc, priority 2005, published 2010).

One series concerns upper airway tone. The settings on record: animals.
The subject of a further series is central apnea patients. To be noted: low doses.
Series [1] relates to patients that had predominantly obstructive sleep apnea. The settings on record: low doses; patients with predominantly obstructive sleep apnea.

Take `CN1CCN2c3ncccc3Cc3ccccc3C2C1` (stereo not shown) [Mirtazapine]: the “effect on tone of the upper airway” value in the series on upper airway tone was “help restore the tone of the upper airway to prevent collapse”.
Take `CC(=O)Nc1nnc(S(N)(=O)=O)s1` [acetazolamide]: in the series on central apnea patients (25.5 pre-treatment), the “apnea episodes after one month of treatment” value is listed as 6.8. In addition, the “decrease in apnea episodes” value in the series on central apnea patients (pre-treatment vs after one month of treatment) was 73%. Besides, the “reduction in apnea episodes” value in series [1] is “about 25%”.
